# Activity calls are given as the source filed them. No cut-off for these calls is given here.
# Legend:
# Liver = experiment: Drug uptake in ICR mouse liver xenografted with mouse S180 cells at 1 umol/kg/day, po after 7 days; assay type: ADME, organism-based, CCRF S-180; settings: in vivo, 168 h
# CCRF S-180 [1] = experiment: Antitumor activity against mouse S180 cells xenografted in po dosed ICR mouse assessed as decrease in tumor growth administered daily for 14 days; assay type: functional, organism-based
# Mus musculus [2] = experiment: Acute toxicity in ICR mouse assessed as change in serum ALT level at 100 umol/kg, po administered as single dose measured on 7th day; assay type: organism-based; settings: in vivo
# Kidney = experiment: Drug uptake in ICR mouse kidney xenografted with mouse S180 cells at 1 umol/kg/day, po after 7 days; assay type: ADME, organism-based, CCRF S-180; settings: in vivo, 168 h
# Lung = experiment: Drug uptake in ICR mouse lung xenografted with mouse S180 cells at 1 umol/kg/day, po after 7 days; assay type: ADME, organism-based, CCRF S-180; settings: in vivo, 168 h
# Mus musculus [3] = experiment: Acute toxicity in ICR mouse assessed as change in serum AST level at 100 umol/kg, po administered as single dose measured on 7th day; assay type: organism-based; settings: in vivo
# Tumour = experiment: Drug level in tumor in ICR mouse xenografted with S180 cells at 1 umol/kg/day, po after 7 days; assay type: ADME, organism-based, Neoplasm, CCRF S-180; settings: in vivo, 168 h
# Brain = experiment: Drug uptake in ICR mouse brain xenografted with mouse S180 cells at 1 umol/kg/day, po after 7 days; assay type: ADME, organism-based, CCRF S-180; settings: in vivo, 168 h
# Mus musculus [4] = experiment: Acute toxicity in ICR mouse assessed as morphological changes in organs at 100 umol/kg, po administered as single dose observed for 7 days; assay type: organism-based; settings: in vivo, 168 h
# Heart = experiment: Drug uptake in ICR mouse heart xenografted with mouse S180 cells at 1 umol/kg/day, po after 7 days; assay type: ADME, organism-based, CCRF S-180; settings: in vivo, 168 h
# Spleen = experiment: Drug uptake in ICR mouse spleen xenografted with mouse S180 cells at 1 umol/kg/day, po after 7 days; assay type: ADME, organism-based, CCRF S-180; settings: in vivo, 168 h
# Mus musculus [5] = experiment: Acute toxicity in ICR mouse assessed as change in serum creatinine level at 100 umol/kg, po administered as single dose measured on 7th day; assay type: organism-based; settings: in vivo
# CCRF S-180 [6] = experiment: Antiproliferative activity against mouse S180 cells at 3.5 uM after 24 hrs by confocal microscopy; assay type: functional, cell-based
# Calf thymus DNA [7] = experiment: Induction of DNA intercalation of calf thymus DNA assessed as increase in fluorescence intensity at 345 nm using 80 uM calf thymus DNA by fluorescence spectroscopy; assay type: nucleic-acid assay; settings: Bos taurus
# HeLa [8] = experiment: Antiproliferative activity against human HeLa cells assessed as cell viability after 48 hrs by MTT assay; assay type: functional, cell-based
# CCRF S-180 [9] = experiment: Antiproliferative activity against mouse S180 cells assessed as cell viability after 48 hrs by MTT assay; assay type: functional, cell-based; settings: CCRF S-180, 48 h
# Mus musculus [10] = experiment: Acute toxicity in ICR mouse assessed as normal behavior at 100 umol/kg, po administered as single dose observed for 7 days; assay type: organism-based; settings: in vivo, 168 h
# CCRF S-180 [11] = experiment: Potency index, ratio of activity of Doxorubicin to test compound for antitumor activity against mouse S180 cells; assay type: functional
# [12] = Retention time of compound by HPLC method; assay type: physicochemical
# HeLa [13] = experiment: Antiproliferative activity against human HeLa cells at 3.5 uM after 24 hrs by confocal microscopy; assay type: functional, cell-based
# Calf thymus DNA [14] = experiment: Induction of DNA intercalation of calf thymus DNA assessed as decrease in absorption at 7.4 uM measured at 258 nm using 200 uM calf thymus DNA by UV spectrophotometry; assay type: nucleic-acid assay; settings: Bos taurus
# Calf thymus DNA [15] = experiment: Induction of DNA intercalation of calf thymus DNA assessed as increase in absorption at 7.4 uM measured at 208 nm using 200 uM calf thymus DNA by UV spectrophotometry; assay type: nucleic-acid assay; settings: Bos taurus
# Calf thymus DNA [16] = experiment: Induction of DNA intercalation of calf thymus DNA assessed as increase in absorption at 0.9 uM using 4 uM calf thymus DNA measured at 208 nm by UV spectrophotometry; assay type: nucleic-acid assay; settings: Bos taurus
# Calf thymus DNA [17] = experiment: Induction of DNA intercalation of calf thymus DNA assessed as decrease in fluorescence intensity at 345 nm measured at 0.18 uM by fluorescence spectroscopy; assay type: nucleic-acid assay; settings: Bos taurus
# Blood = experiment: Drug uptake in ICR mouse blood xenografted with mouse S180 cells at 1 umol/kg/day, po after 7 days; assay type: ADME, organism-based, CCRF S-180; settings: in vivo, 168 h
# Mus musculus [18] = experiment: Cardiotoxicity in ICR mouse xenografted with mouse S180 cells; assay type: toxicity, organism-based, CCRF S-180; settings: in vivo
# Calf thymus DNA [19] = experiment: Induction of DNA intercalation of calf thymus DNA assessed as increase in absorption at 0.9 uM using 4 uM calf thymus DNA measured at 258 nm by UV spectrophotometry; assay type: nucleic-acid assay; settings: Bos taurus
# Mus musculus [20] = experiment: Acute toxicity in ICR mouse xenografted with S180 cells assessed as heart weight at 100 umol/kg, po; assay type: organism-based, CCRF S-180; settings: in vivo
# Mus musculus [21] = experiment: Acute toxicity in ICR mouse xenografted with S180 cells assessed as liver weight at 100 umol/kg, po; assay type: organism-based, CCRF S-180; settings: in vivo
# Mus musculus [22] = experiment: Acute toxicity in ICR mouse xenografted with S180 cells assessed as brain weight at 100 umol/kg, po; assay type: organism-based, CCRF S-180; settings: in vivo
# Mus musculus [23] = experiment: Acute toxicity in ICR mouse xenografted with S180 cells assessed as spleen weight at 100 umol/kg, po; assay type: organism-based, CCRF S-180; settings: in vivo
# Mus musculus [24] = experiment: Acute toxicity in ICR mouse xenografted with S180 cells assessed as kidney weight at 100 umol/kg, po; assay type: organism-based, CCRF S-180; settings: in vivo
smiles,measurement,setting,value
O=C1[C@@H]2Cc3c([nH]c4ccccc34)CN2C(=O)[C@@H]2Cc3c([nH]c4ccccc34)CN12,Drug uptake,Liver,Not Active
same,Activity,CCRF S-180 [1],Dose-dependent effect
same,Activity,Mus musculus [2],Non-toxic
same,Drug uptake,Kidney,Not Active
same,Drug uptake,Lung,Not Active
same,Activity,Mus musculus [3],Non-toxic
same,Drug uptake,Tumour,Active
same,Drug uptake,Brain,Not Active
same,Activity,Mus musculus [4],Non-toxic
same,Drug uptake,Heart,Not Active
same,Drug uptake,Spleen,Not Active
same,Activity,Mus musculus [5],Non-toxic
same,Activity,CCRF S-180 [6],Active
same,Activity,Calf thymus DNA [7],Active
same,IC50,HeLa [8],3.5 µM
same,IC50,CCRF S-180 [9],0.39 µM
same,Activity,Mus musculus [10],Non-toxic
same,Ratio,CCRF S-180 [11],2
same,Retention_time,[12],5.704 min
same,Activity,HeLa [13],Active
same,Activity,Calf thymus DNA [14],Active
same,Activity,Calf thymus DNA [15],Active
same,Activity,Calf thymus DNA [16],Active
same,Activity,Calf thymus DNA [17],Active
same,Drug uptake,Blood,Not Active
same,Activity,Mus musculus [18],Non-toxic
same,Activity,Calf thymus DNA [19],Active
same,Activity,Mus musculus [20],Non-toxic
same,Activity,Mus musculus [21],Non-toxic
same,Activity,Mus musculus [22],Non-toxic
same,Activity,Mus musculus [23],Non-toxic
same,Activity,Mus musculus [24],Non-toxic
COc1cccc2c1C(=O)c1c(O)c3c(c(O)c1C2=O)C[C@@](O)(C(=O)CO)C[C@@H]3O[C@H]1C[C@H](N)[C@H](O)[C@H](C)O1 [DOXORUBICIN],Activity,Mus musculus [18],Toxic

# Reference: ChEMBL document CHEMBL3779818, “Design, synthesis and evaluation of a novel stacking nano-intercalator as an anti-tumor agent” (Medchemcomm, 2016)
